Reference: ChEMBL document CHEMBL3286109, “Structure-activity relationship studies of indole-based compounds as small molecule HIV-1 fusion inhibitors targeting glycoprotein 41” (J Med Chem, 2014)

Experiments:
[1] = Inhibition of HIV1 HXB2 gp41-mediated cell-cell fusion between viral envelope-expressing human HL2/3 cells to human TZM-bl cells by luciferase reporter assay; type: cell-based; conditions: Human immunodeficiency virus 1, HXB2, TZM-bl
[2] = system: Human immunodeficiency virus 1; assay: Antiviral activity against HIV-1 Ba-L infected in human MAGI-CCR5 cells assessed as inhibition of viral replication after 48 hrs by chemiluminescence assay; type: functional, organism-based; conditions: Human immunodeficiency virus 1, Ba-L, MAGI-CCR5, 48 h
[3] = Cytotoxicity against human MAGI-CCR5 cells assessed as inhibition of cell viability by MTS assay; type: cell-based; conditions: read-out: TC50 (the source's name)
[4] = Cytotoxicity against human TZM-bl cells assessed as inhibition of cell viability by resazurin assay; conditions: read-out: TC50 (the source's name)
[5] = system: Human immunodeficiency virus 1; assay: Antiviral activity against HIV-1 3B infected in human MAGI-CCR5 cells assessed as inhibition of viral replication after 48 hrs by chemiluminescence assay; type: functional, organism-based; conditions: Human immunodeficiency virus 1, 3B, MAGI-CCR5, 48 h
[6] = Binding affinity to HIV1 Envelope glycoprotein gp41 Fe(env2.0)3 using C18FL as probe by fluorescence assay; parameters: species or system Human immunodeficiency virus 1

Compound `COc1cccc(-c2ccc3ccn(Cc4cccc(C(=O)O)c4)c3c2)c1` has an EC50 [1] of 14 µM, an EC50 [2] of 28 µM and a CC50 [3] of over 100 µM. It also gave a CC50 [4] of over 100 µM.
Compound `O=C(O)c1cccc(Cn2ccc3ccc(-c4cccc(O)c4)cc32)c1` has an EC50 [1] of 8 µM, an EC50 [2] of 23 µM and a CC50 [3] of 94 µM. It also gave a CC50 [4] of 100 µM.
For `O=C(O)c1cccc(Cn2ccc3ccc(-c4ccc5cc(Cl)ccc5n4)cc32)c1`, the EC50 [2] was 48 µM, the CC50 [3] was over 100 µM and the CC50 [4] was 50 µM.
With `COc1ccc(Cn2ccc3ccc(-c4ccc5ccn(Cc6cccc(C(=O)O)c6)c5c4)cc32)cc1` the EC50 [2] was 0.9 µM, the EC50 [5] was 0.9 µM and the CC50 [3] was 32 µM. For the same compound, the CC50 [4] was 20 µM.
`O=C(O)c1cccc(Cn2ccc3ccc(-c4ccc5ccn(Cc6ccc(F)cc6)c5c4)cc32)c1` showed a Ki [6] of 1.7 µM, an EC50 [1] of 1.1 µM and an EC50 [2] of 1.6 µM. For the same compound, the CC50 [4] was over 25 µM.
Work on `O=C(O)c1cccc(Cn2ccc3cc(-c4ccc5cc(Cl)ccc5n4)ccc32)c1` yielded an EC50 [1] of 8 µM, an EC50 [2] of 6 µM and a CC50 [4] of 100 µM.
Work on `COc1cccc(Cn2ccc3ccc(-c4ccc5ncn(Cc6cccc(C(=O)O)c6)c5c4)cc32)c1` yielded a Ki [6] of 6 µM, an EC50 [1] of 34 µM and an EC50 [2] of 54 µM. For the same compound, the EC50 [5] was 57 µM, the CC50 [3] was over 100 µM and the CC50 [4] was over 100 µM.
In the case of `COc1cccc(Cn2cnc3ccc(-c4ccc5ccn(Cc6cccc(C(=O)O)c6)c5c4)cc32)c1`, the Ki [6] is reported as 4.7 µM, the EC50 [1] is reported as 45 µM and the EC50 [2] is reported as 56 µM. The EC50 [5] was 63 µM, the CC50 [3] was over 100 µM and the CC50 [4] was over 100 µM.
Work on `COc1cccc(Cn2ccc3ccc(-c4ccc5c(c4)ncn5Cc4cccc(C(=O)O)c4)cc32)c1` yielded a Ki [6] of 3.8 µM, an EC50 [1] of 6 µM and an EC50 [2] of 48 µM. The EC50 [5] was over 100 µM, the CC50 [3] was over 100 µM and the CC50 [4] was over 100 µM.
Work on `COc1cccc(Cn2cnc3cc(-c4ccc5ccn(Cc6cccc(C(=O)O)c6)c5c4)ccc32)c1` yielded a Ki [6] of 5.3 µM, an EC50 [1] of 56 µM and an EC50 [2] of 28 µM. The EC50 [5] was 49 µM, the CC50 [3] was over 100 µM and the CC50 [4] was over 100 µM.
In the case of `COc1cccc(Cc2c[nH]c3cc(-c4ccc5ccn(Cc6cccc(C(=O)O)c6)c5c4)ccc23)c1`, the Ki [6] is reported as 0.9 µM, the EC50 [1] is reported as 6 µM and the EC50 [2] is reported as 5.6 µM. For the same compound, the EC50 [5] was 5.8 µM, the CC50 [3] was 24 µM and the CC50 [4] was 33 µM.
For `COc1cccc(Cn2ccc3ccc(-c4ccc5c(Cc6cccc(C(=O)O)c6)c[nH]c5c4)cc32)c1`, the Ki [6] was 1.6 µM, the EC50 [1] was 7 µM and the EC50 [2] was 18 µM. For the same compound, the EC50 [5] was 18 µM, the CC50 [3] was 34 µM and the CC50 [4] was 57 µM.
Work on `COc1cccc(Cc2c[nH]c3cc(-c4ccc5c(Cc6cccc(C(=O)O)c6)c[nH]c5c4)ccc23)c1` yielded a Ki [6] of 0.9 µM, an EC50 [1] of 4 µM and an EC50 [2] of 5.9 µM. It also gave an EC50 [5] of 6.2 µM, a CC50 [3] of 12 µM and a CC50 [4] of 500 µM.
With `COC(=O)c1cccc(Cc2c[nH]c3ccc(-c4ccc5[nH]cc(Cc6cccc(C(=O)O)c6)c5c4)cc23)c1` the Ki [6] was 1.2 µM, the EC50 [1] was 2 µM and the EC50 [2] was 5 µM. For the same compound, the EC50 [5] was 4.8 µM, the CC50 [3] was 31 µM and the CC50 [4] was 99 µM.
Compound `O=C(O)c1cccc(Cc2c[nH]c3ccc(-c4ccc5cc[nH]c5c4)cc23)c1` has a Ki [6] of 1.7 µM, an EC50 [1] of 5 µM and an EC50 [2] of 13 µM. The EC50 [5] was 13 µM, the CC50 [3] was 80 µM and the CC50 [4] was 194 µM.
Work on `O=C(O)c1cccc(Cc2c[nH]c3cc(-c4ccc5cc[nH]c5c4)ccc23)c1` yielded a Ki [6] of 0.6 µM, an EC50 [1] of 6 µM and an EC50 [2] of 13 µM. It also gave an EC50 [5] of 14 µM, a CC50 [3] of 23 µM and a CC50 [4] of 290 µM.
With `O=C(O)c1cccc(Cn2cnc3ccc(-c4ccc5cc[nH]c5c4)cc32)c1` the Ki [6] was 11 µM, the EC50 [1] was 14 µM and the EC50 [2] was 41 µM. It also gave an EC50 [5] of 36 µM, a CC50 [3] of over 100 µM and a CC50 [4] of over 100 µM.
`O=C(O)c1cccc(Cn2cnc3cc(-c4ccc5cc[nH]c5c4)ccc32)c1` gave a Ki [6] of 16 µM, an EC50 [1] of 124 µM and an EC50 [2] of over 100 µM. The EC50 [5] was over 100 µM, the CC50 [3] was over 100 µM and the CC50 [4] was over 100 µM.
For `Cn1ccc2ccc(-c3ccc4ccn(Cc5cccc(C(=O)O)c5)c4c3)cc21`, the Ki [6] was 0.3 µM, the EC50 [1] was 1.3 µM and the EC50 [2] was 4.5 µM. The EC50 [5] was 4.3 µM, the CC50 [3] was over 50 µM and the CC50 [4] was over 50 µM.
